17 compounds from patent publication US20120101257A1, “PROCESSES FOR PREPARING AMINO-SUBSTITUTED GAMMA-LACTAMS” (UNIVERSITE DE MONTREAL, priority 2009, published 2012) can be followed below.

*1 amine or outer side, *2 acyl side, *3 side chain or, on linkers, in order; H or OH if unused. Where a SMILES comes first, the peptide text is derived from it. [ ]: non-standard residue; d: D form. The star is where a group is joined. X9 = O=C1C[C@H](N[*:1])CN1[C@@H](Cc1c[nH]c2ccccc12)C(=O)[*:2]; X10 = O=C1C[C@H](N[*:1])CN1[C@H](Cc1ccccc1)C(=O)[*:2]; X5 = O=C1C[C@@H](N[*:1])CN1[C@H](Cc1ccccc1)C(=O)[*:2]; X7 = N[C@H]1CC(=O)N([C@H](Cc2c[nH]c3ccccc23)C(=O)*)C1; X3 = N[C@@H]1CCN([C@H](Cc2c[nH]c3ccccc23)C(=O)*)C1=O; X4 = N[C@H]1CCN([C@H](Cc2c[nH]c3ccccc23)C(=O)*)C1=O; X1 = NCCCC[C@@H](C(N)=O)N1C[C@@H](N*)CC1=O; X6 = NCCCC[C@@H](C(N)=O)N1CC[C@@H](N*)C1=O; X2 = NCCCC[C@@H](C(N)=O)N1CC[C@H](N*)C1=O; X8 = NCCCC[C@@H](C(N)=O)N1C[C@H](N*)CC1=O

One test deals with T1, GHS-R1a receptor (Homo sapiens, UniProt Q92847).
T1 construct: expressed in transfected cells; host or cells: LLC-PK1 cells, transient calcium phosphate transfection, membrane preparation
T1 sequence (Q92847 whole entry): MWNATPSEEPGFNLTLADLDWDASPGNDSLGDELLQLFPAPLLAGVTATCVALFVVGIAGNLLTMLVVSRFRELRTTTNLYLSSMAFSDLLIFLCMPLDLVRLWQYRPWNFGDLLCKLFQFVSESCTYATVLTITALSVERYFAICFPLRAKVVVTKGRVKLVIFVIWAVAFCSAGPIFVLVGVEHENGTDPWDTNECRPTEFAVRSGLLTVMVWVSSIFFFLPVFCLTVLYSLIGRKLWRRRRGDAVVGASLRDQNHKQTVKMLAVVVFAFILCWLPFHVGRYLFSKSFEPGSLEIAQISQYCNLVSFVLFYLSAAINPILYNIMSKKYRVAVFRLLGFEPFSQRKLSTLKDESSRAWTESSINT
Put plainly: GHS-R1a receptor competitive binding assay with 125I-Ghrelin. The following applies: for IC50: competition with 125I-Ghrelin, GHS-R1a transiently transfected in LLC-PK1 cells; for loss of GHS-R1a binding affinity, factor relative to GHRP-6: factor of decrease compared to GHRP-6. The protocol: Transfection LLC-PK1 cells were seeded at 1.5×10^6 cells/10 cm Petri-dishes and grown for 24 h in DMEM high-glucose (4.5 g/L) with 10% foetal bovine serum supplemented with penicillin (10,000 Units/ml) and streptomycin (10,000 ug/ml), and cultured at 37° C., with 5% CO2. The medium was then replaced for another 4-5 hours before CaPO4 calcium phosphate transfection. The DNA solution consists of 40 μg of DNA in a volume of 500 μl in which was added 500 μl of 2 mM Tris-HCl pH 8.0, 0.2 mM EDTA pH 8.0 containing 500 mM CaCl2, to a final volume of 1 ml. Then 1 ml of 50 mM Hepes, 280 mM NaCl, 1.5 mM Na2HPO4 pH to 7.1 (HBSS) was added by alterning 1 drop/2 air bubbles. The transfection mix reaction was incubated at RT for 30 min. After the incubation period, 1 ml of the mix was added to each plate and distributed evenly for incubation. The media was replaced with standard DMEM-high glucose media for another 24 h and cells were collected for membrane preparation.
Membrane preparation The experiment was carried out 4° C. unless specified. Cells were washed 2 times with PBS and with the homogenization buffer (HB) consisting of 50 mM Tris, 5 mM MgCl2, 2.5 mM EDTA, 30 ug/ml bacitracin at pH 7.3 and were scraped in Eppendorf tubes. Cells were lysed with 2 cycles of freeze/thawing using liquid nitrogen and were then centrifuged at 4° C. for 20 min at 10,000 g to collect the membranes. The membranes were re-suspended in a small volume of HB and aliquoted for storage at −80° C.
The non-specific binding was determined by excess of competitive ligand at 10^−5M. The reaction was carried out at RT for 1 h.

For another test, the target named is T2, CD36 (Rattus norvegicus, UniProt Q07969).
T2 construct: the rat cardiac membranes (200 μg) as source of CD36; from tissue; host or cells: Sprague Dawley rat heart (cardiac membranes)
T2 sequence (Q07969 whole entry): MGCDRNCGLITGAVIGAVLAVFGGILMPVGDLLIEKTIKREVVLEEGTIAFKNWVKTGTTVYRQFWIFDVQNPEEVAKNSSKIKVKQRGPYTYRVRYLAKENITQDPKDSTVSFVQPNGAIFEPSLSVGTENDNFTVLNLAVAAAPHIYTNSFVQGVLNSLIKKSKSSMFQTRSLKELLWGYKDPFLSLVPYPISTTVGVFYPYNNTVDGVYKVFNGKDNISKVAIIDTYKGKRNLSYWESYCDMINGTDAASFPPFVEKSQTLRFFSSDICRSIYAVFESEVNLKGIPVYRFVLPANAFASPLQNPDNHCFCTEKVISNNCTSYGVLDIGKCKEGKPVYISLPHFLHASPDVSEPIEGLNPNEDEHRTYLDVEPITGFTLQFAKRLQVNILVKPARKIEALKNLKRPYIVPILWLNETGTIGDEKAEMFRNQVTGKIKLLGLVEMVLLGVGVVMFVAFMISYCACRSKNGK
Put plainly: Competitive covalent CD36 binding assay using photoactivatable [125I]-Tyr-Bpa-Ala-Hexarelin. As to conditions: for IC50: displacement of [125I]-Tyr-Bpa-Ala-Hexarelin; for drop of CD36 affinity, factor: factor of decrease, reference peptide not stated. The protocol: Animal use was in accordance with the Institutional Animal Ethics Committee and the Canadian Council on Animal Care guidelines for the use of experimental animals. Sprague Dawley (275-350 g) rats were anaesthetized with sodium pentobarbital and their hearts were promptly removed in ice-cold saline and the cardiac membranes were prepared according to Harigaya and Schwartz.^lxvi
Nonspecific binding was defined as binding not displaced by 50 μM peptide. After an incubation period of 60 min at 22° C., membranes were submitted to UV irradiation at 365 nm for 15 min at 4° C. After centrifugation at 12 000 g for 15 min, the pellets were resuspended in 100 μl of sample buffer consisting of 62 mM Tris-HCl, pH 6.8, 2% SDS, 10% glycerol, 15% 2-mercapto-ethanol, and 0.05% bromophenol blue, and boiled for 5 min prior to being subjected to electrophoresis on 7.5% SDS-PAGE. The SDS/PAGE gels were fixed, colored in Coomassie Brilliant Blue R-250, dried, exposed to a storage phosphor intensifying screen (Amersham Biosciences), and analysed by using a Typhoon PhosphorImager (Amersham Biosciences) and ImageQuant 5.0 software to establish competition curves.
In general terms: Displacement assays read how much labelled ligand stays bound in the presence of the test substance.

One may read the IC50 as the midpoint of a concentration-inhibition curve. High values mean lower potency, low ones higher potency. For `C[C@H](NC(=O)[C@@H](Cc1c[nH]c2ccccc12)N1CC[C@H](N)C1=O)C(=O)N[C@@H](Cc1c[nH]c2ccccc12)C(=O)N[C@H](Cc1ccccc1)C(=O)N[C@@H](CCCCN)C(N)=O` [Compound 44, (S)-Agl-D-Trp-Ala-Trp-D-Phe-Lys-NH2] (X4-AW[dF]K-NH2), on GHS-R1a receptor, the IC50 turned out to be 0.0409 µM and the “loss of GHS-R1a binding affinity, factor relative to GHRP-6” value was found to be 10. For the same compound, the half-maximal inhibitory concentration (IC50) on CD36 (rat cardiac membranes) was 14.5 µM.

As to `C[C@@H](C(=O)N[C@@H](Cc1c[nH]c2ccccc12)C(=O)N[C@H](Cc1ccccc1)C(=O)N[C@@H](CCCCN)C(N)=O)N1CC[C@H](NC(=O)[C@@H](N)Cc2c[nH]cn2)C1=O` [Compound 45, His-(S)-Agl-Ala-Trp-D-Phe-Lys-NH2], the IC50 on GHS-R1a receptor was 28.6 µM; on CD36 (rat cardiac membranes) it was 13.4 µM. Besides, at CD36, the “drop of CD36 affinity, factor” value is 15.

On to `NCCCC[C@H](NC(=O)[C@H](Cc1ccccc1)NC(=O)[C@H](Cc1c[nH]c2ccccc12)N1CC[C@H](NC(=O)[C@@H](Cc2c[nH]c3ccccc23)NC(=O)[C@@H](N)Cc2c[nH]cn2)C1=O)C(N)=O` [Compound 46, His-D-Trp-(S)-Agl-Trp-D-Phe-Lys-NH2], for which, at GHS-R1a receptor, the IC50 is 2.39 µM and the “loss of GHS-R1a binding affinity, factor relative to GHRP-6” value was 10^3. In addition, at CD36 (rat cardiac membranes), the IC50 is 7.45 µM and the “affinity for the CD36 receptor (in words)” value is recorded as “retained similar affinity”.

`C[C@H](NC(=O)[C@@H](Cc1c[nH]c2ccccc12)NC(=O)[C@@H](N)Cc1c[nH]cn1)C(=O)N[C@H]1CCN([C@H](Cc2ccccc2)C(=O)N[C@@H](CCCCN)C(N)=O)C1=O` [Compound 47, His-D-Trp-Ala-(S)-Agl-D-Phe-Lys-NH2]: the IC50 on GHS-R1a receptor and at CD36 (rat cardiac membranes) was greater than 10 µM throughout.

With `C[C@H](NC(=O)[C@@H](Cc1c[nH]c2ccccc12)NC(=O)[C@@H](N)Cc1c[nH]cn1)C(=O)N[C@@H](Cc1c[nH]c2ccccc12)C(=O)N[C@H]1CCN([C@@H](CCCCN)C(N)=O)C1=O` [Compound 48, His-D-Trp-Ala-Trp-(S)-Agl-Lys-NH2] (H-H[dW]AW-X2), the IC50 on GHS-R1a receptor is 3.1 µM; at CD36 (rat cardiac membranes), 21.4 µM. In addition, the “drop of CD36 affinity, factor” value at CD36 stood at 15.

Consider `C[C@H](NC(=O)[C@@H](Cc1c[nH]c2ccccc12)N1C[C@@H](N)CC1=O)C(=O)N[C@@H](Cc1c[nH]c2ccccc12)C(=O)N[C@H](Cc1ccccc1)C(=O)N[C@@H](CCCCN)C(N)=O` [Compound 49, (S)-Bgl-D-Trp-Ala-Trp-D-Phe-Lys-NH2] (X7-AW[dF]K-NH2), for which the half-maximal inhibitory concentration (IC50) at GHS-R1a receptor was 0.371 µM; at CD36 (rat cardiac membranes), greater than 10 µM.

Turning to `C[C@@H](C(=O)NCN[C@@H](Cc1c[nH]c2ccccc12)C(=O)N[C@H](Cc1ccccc1)C(=O)N[C@@H](CCCCN)C(N)=O)N1C[C@@H](NC(=O)[C@@H](N)Cc2c[nH]cn2)CC1=O` [Compound 50, His-(S)-Bgl-Ala-Trp-D-Phe-Lys-NH2], the IC50 at GHS-R1a receptor and on CD36 (rat cardiac membranes) was greater than 10 µM each time.

Turning to `NCCCC[C@H](NC(=O)[C@@H](Cc1ccccc1)NC(=O)[C@H](Cc1c[nH]c2ccccc12)N1C[C@@H](NC(=O)[C@@H](Cc2c[nH]c3ccccc23)NC(=O)[C@@H](N)Cc2cnc[nH]2)CC1=O)C(N)=O` [Compound 51, His-D-Trp-(S)-Bgl-Trp-D-Phe-Lys-NH2] (H-H[dW][X9][dF]K-NH2), the half-inhibitory concentration (IC50) is 0.654 µM at GHS-R1a receptor and greater than 10 µM at CD36 (rat cardiac membranes).

As to `C[C@H](NC(=O)[C@@H](Cc1c[nH]c2ccccc12)NC(=O)[C@@H](N)Cc1c[nH]cn1)C(=O)N[C@H]1CC(=O)N([C@H](Cc2ccccc2)C(=O)N[C@@H](CCCCN)C(N)=O)C1` [Compound 52, His-D-Trp-Ala-(S)-Bgl-D-Phe-Lys-NH2] (H-H[dW]A[X10]K-NH2), the IC50 on GHS-R1a receptor and at CD36 (rat cardiac membranes) was greater than 10 µM each time.

Take `C[C@H](NC(=O)[C@@H](Cc1c[nH]c2ccccc12)NC(=O)[C@@H](N)Cc1c[nH]cn1)C(=O)N[C@@H](Cc1c[nH]c2ccccc12)C(=O)N[C@H]1CC(=O)N([C@@H](CCCCN)C(N)=O)C1` [Compound 53, His-D-Trp-Ala-Trp-(S)-Bgl-Lys-NH2] (H-H[dW]AW-X1): the IC50 was 24.5 µM at GHS-R1a receptor and 26.5 µM on CD36 (rat cardiac membranes). Further, on CD36, the “drop of CD36 affinity, factor” value is on record as 15.

Consider `C[C@H](NC(=O)[C@@H](Cc1c[nH]c2ccccc12)N1CC[C@@H](N)C1=O)C(=O)N[C@@H](Cc1c[nH]c2ccccc12)C(=O)N[C@H](Cc1ccccc1)C(=O)N[C@@H](CCCCN)C(N)=O` [Compound 60, (R)-Agl-D-Trp-Ala-Trp-D-Phe-Lys-NH2] (X3-AW[dF]K-NH2), for which the IC50 at GHS-R1a receptor amounted to 3.46 µM; on CD36 (rat cardiac membranes) it was 8.72 µM.

As for `C[C@@H](C(=O)N[C@@H](Cc1c[nH]c2ccccc12)C(=O)N[C@H](Cc1ccccc1)C(=O)N[C@@H](CCCCN)C(N)=O)N1CC[C@@H](NC(=O)[C@@H](N)Cc2c[nH]cn2)C1=O` [Compound 61, His-(R)-Agl-Ala-Trp-D-Phe-Lys-NH2], the IC50 at GHS-R1a receptor and at CD36 (rat cardiac membranes) was greater than 10 µM throughout.

As for `NCCCC[C@H](NC(=O)[C@H](Cc1ccccc1)NC(=O)[C@H](Cc1c[nH]c2ccccc12)N1CC[C@@H](NC(=O)[C@@H](Cc2c[nH]c3ccccc23)NC(=O)[C@@H](N)Cc2c[nH]cn2)C1=O)C(N)=O` [Compound 62, His-D-Trp-(R)-Agl-Trp-D-Phe-Lys-NH2], the IC50 on GHS-R1a receptor worked out at 2.82 µM; on CD36 (rat cardiac membranes) it was 17.3 µM.

As for `C[C@H](NC(=O)[C@@H](Cc1c[nH]c2ccccc12)NC(=O)[C@@H](N)Cc1c[nH]cn1)C(=O)N[C@@H]1CCN([C@H](Cc2ccccc2)C(=O)N[C@@H](CCCCN)C(N)=O)C1=O` [Compound 63, His-D-Trp-Ala-(R)-Agl-D-Phe-Lys-NH2], the IC50 on GHS-R1a receptor and on CD36 (rat cardiac membranes) was greater than 10 µM throughout.

Consider `C[C@H](NC(=O)[C@@H](Cc1c[nH]c2ccccc12)NC(=O)[C@@H](N)Cc1c[nH]cn1)C(=O)N[C@@H](Cc1c[nH]c2ccccc12)C(=O)N[C@@H]1CCN([C@@H](CCCCN)C(N)=O)C1=O` [Compound 64, His-D-Trp-Ala-Trp-(R)-Agl-Lys-NH2] (H-H[dW]AW-X6), for which the IC50 was greater than 10 µM at GHS-R1a receptor and 38.2 µM on CD36 (rat cardiac membranes). Moreover, the “reduction of CD36 binding affinity, factor compared with hexarelin” value at CD36 was found to be 10.

In the case of `C[C@H](NC(=O)[C@@H](Cc1c[nH]c2ccccc12)NC(=O)[C@@H](N)Cc1c[nH]cn1)C(=O)N[C@@H]1CC(=O)N([C@H](Cc2ccccc2)C(=O)N[C@@H](CCCCN)C(N)=O)C1` [Compound 69, His-D-Trp-Ala-(R)-Bgl-D-Phe-Lys-NH2] (H-H[dW]A[X5]K-NH2), the IC50 is greater than 10 µM on GHS-R1a receptor and 53.5 µM at CD36 (rat cardiac membranes). In addition, the “reduction of CD36 binding affinity, factor compared with hexarelin” value at CD36 came to 10.

With `C[C@H](NC(=O)[C@@H](Cc1c[nH]c2ccccc12)NC(=O)[C@@H](N)Cc1c[nH]cn1)C(=O)N[C@@H](Cc1c[nH]c2ccccc12)C(=O)N[C@@H]1CC(=O)N([C@@H](CCCCN)C(N)=O)C1` [Compound 70, His-D-Trp-Ala-Trp-(R)-Bgl-Lys-NH2] (H-H[dW]AW-X8), the IC50 at GHS-R1a receptor and on CD36 (rat cardiac membranes) was greater than 10 µM each time.
